Structures can show the parent of a compound that is named as a salt. Where two headings read alike, the source gives them in different places.
Target: T1, Serine Palmitoyl Transferase (SPT); microsomes from HEK 293 cells stably transfected with human LCB2 subunit of SPT (Homo sapiens, UniProt O15270)
T1 construct: expressed in transfected cells; host or cells: HEK 293 cells stably transfected with LCB2; microsomal fraction
T1 sequence (O15270 1-562): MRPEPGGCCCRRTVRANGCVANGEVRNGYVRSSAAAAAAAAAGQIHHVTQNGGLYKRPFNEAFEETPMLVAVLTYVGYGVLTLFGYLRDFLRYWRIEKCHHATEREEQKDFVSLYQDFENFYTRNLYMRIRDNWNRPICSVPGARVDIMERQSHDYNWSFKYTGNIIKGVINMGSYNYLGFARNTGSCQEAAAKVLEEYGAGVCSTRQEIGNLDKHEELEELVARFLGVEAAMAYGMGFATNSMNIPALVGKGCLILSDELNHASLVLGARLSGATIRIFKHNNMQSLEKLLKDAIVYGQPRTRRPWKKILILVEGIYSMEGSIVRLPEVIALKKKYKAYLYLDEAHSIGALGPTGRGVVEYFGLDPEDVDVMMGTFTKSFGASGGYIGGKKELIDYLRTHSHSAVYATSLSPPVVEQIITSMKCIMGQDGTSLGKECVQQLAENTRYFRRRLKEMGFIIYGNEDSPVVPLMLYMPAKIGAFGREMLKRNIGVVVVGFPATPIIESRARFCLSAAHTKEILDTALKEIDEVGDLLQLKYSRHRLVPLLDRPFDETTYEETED
T1 sequence (O15269 1-473 partner): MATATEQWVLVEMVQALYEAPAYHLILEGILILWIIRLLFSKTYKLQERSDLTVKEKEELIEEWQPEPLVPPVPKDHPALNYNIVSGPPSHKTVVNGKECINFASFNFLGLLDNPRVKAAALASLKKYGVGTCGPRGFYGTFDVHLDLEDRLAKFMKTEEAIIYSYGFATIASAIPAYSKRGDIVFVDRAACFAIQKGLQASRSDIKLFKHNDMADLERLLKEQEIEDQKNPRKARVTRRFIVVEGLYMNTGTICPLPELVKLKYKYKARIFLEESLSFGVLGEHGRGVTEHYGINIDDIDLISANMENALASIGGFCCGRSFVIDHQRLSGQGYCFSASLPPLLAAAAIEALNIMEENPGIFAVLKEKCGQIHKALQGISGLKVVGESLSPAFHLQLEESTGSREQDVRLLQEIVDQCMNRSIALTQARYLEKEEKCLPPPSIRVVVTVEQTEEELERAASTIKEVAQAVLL
T1 sequence (Q969W0 1-71 partner): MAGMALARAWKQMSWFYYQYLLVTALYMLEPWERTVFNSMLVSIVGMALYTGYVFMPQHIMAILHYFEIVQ
Test: SPT flashplate assay
Format: biochemical

[1] = microsomes of HEK 293 LCB2 cells, 3H-serine and palmitoyl CoA, phospholipid coated flashplate, 18-24 hours at room temperature, read-out: SPTISF IC50

## CNC(=O)c1ccc2c(c1)CC(=O)N2C1CCN(CC(=O)N2CCC(C)(C)CC2)CC1 [Example 23, 1-[2-(4,4-dimethylpiperidin-1-yl)-2-oxoethyl]-4-{5-[(methylamino)carbonyl]-2-oxo-2,3-dihydro-1H-indol-1-yl}piperidinium chloride]
SPTISF IC50 (nM)
  IC50: 8.4 nM

## CNC(=O)c1ccc2c(c1)CC(=O)N2C1CCN(CC(=O)N2CCC3(CC2)CC3)CC1 [Example 25, 1-[2-6-azaspiro[2.5]oct-6-yl)-2-oxoethyl]-4-{5-[(methylamino)carbonyl]-2-oxo-2,3-dihydro-1H-indol-1-yl}piperidinium chloride]
SPTISF IC50 (nM)
  IC50: 2.64 nM

## CNC(=O)c1cc2[nH]c(=O)n(C3CCN(CC(=O)N4CCC(C)(C)CC4)CC3)c2cc1F [Example 26, 1-[2-(4,4-dimethylpiperidin-1-yl)-2-oxoethyl]-4-{6-fluoro-5-[(methylamino)carbonyl]-2-oxo-2,3-dihydro-1H-benzimidazol-1-yl}piperidinium chloride]
[1]
  IC50: 7.5 nM

## CCC1(C)CCN(C(=O)CN2CCC(n3c(=O)[nH]c4cc(C(=O)NC)c(F)cc43)CC2)CC1 [Example 27, 1-{1-[2-(4-ethyl-4-methylpiperidin-1-yl)-2-oxoethyl]piperidin-4-yl}-6-fluoro-N-methyl-2-oxo-2,3-dihydro-1H-benzimidazole-5-carboxamide]
[1]
  IC50: 6 nM

## CNC(=O)c1cc2[nH]c(=O)n(C3CCN(CC(=O)N4CCC5(CC4)CC5)CC3)c2cc1F [Example 28, 1-{1-[2-(6-azaspiro[2.5]oct-6-yl)-2-oxoethyl]piperidin-4-yl}-6-fluoro-N-methyl-2-oxo-2,3-dihydro-1H-benzimidazole-5-carboxamide]
[1]
  IC50: 12.9 nM

## C=C1CCN(C(=O)CN2CCC(n3c(=O)[nH]c4cc(C(=O)NC)c(F)cc43)CC2)CC1 [Example 29, 6-fluoro-N-methyl-1-{1-[2-(4-methylonepiperidin-1-yl)-2-oxoethyl]piperidin-4-yl}-2-oxo-2,3-dihydro-1H-benzimidazole-5-carboxamide]
[1]
  IC50: 9.4 nM

## CNC(=O)c1cc2[nH]c(=O)n(C3CCN(CC(=O)N4CC5CCC(CC5)C4)CC3)c2cc1F [Example 30, 1-{1-[2-(3-azabicyclo[3.2.2]non-3-yl)-2-oxoethyl]piperidin-4-yl}-6-fluoro-N-methyl-2-oxo-2,3-dihydro-1H-benzimidazole-5-carboxamide]
[1]
  IC50: 14.5 nM

## CNC(=O)c1cc2[nH]c(=O)n(C3CCN(CC(=O)N4C[C@H]5CCC[C@H]5C4)CC3)c2cc1F [Example 31, 6-fluoro-1-(1-{2-[(3aR,6aS)-hexahydrocyclopenta[c]pyrrol-2(1H)-yl]-2-oxoethyl}piperidin-4-yl)-N-methyl-2-oxo-2,3-dihydro-1H-benzimidazole-5-carboxamide]
[1]
  IC50: 14.7 nM

## CNC(=O)c1cc2[nH]c(=O)n(C3CCN(CC(=O)N4CCC(C)(OC)CC4)CC3)c2cc1F [Example 32, 6-fluoro-1-{1-[2-(4-methoxy-4-methylpiperidin-1-yl)-2-oxoethyl]piperidin-4-yl}-N-methyl-2-oxo-2,3-dihydro-1H-benzimidazole-5-carboxamide]
[1]
  IC50: 26 nM

## CCNC(=O)c1ccc2c(c1)n(C)c(=O)n2C1CCN(CC(=O)N2CCC(C)(C)CC2)CC1 [Example 33, 1-[2-(4,4-dimethylpiperidin-1-yl)-2-oxoethyl]-4-{5-[(ethylamino)carbonyl]-3-methyl-2-oxo-2,3-dihydro-1H-benzimidazol-1-yl}piperidinium chloride]
[1]
  IC50: 59.1 nM

## O=C(CN1CCC(n2c(=O)[nH]c3cc(-c4noc(=O)[nH]4)ccc32)CC1)c1ccc(Cl)cc1 [Example 37, 1-{1-[2-(4-chlorophenyl)-2-oxoethyl]piperidin-4-yl}-5-(5-oxo-4,5-dihydro-1,2,4-oxadiazol-3-yl)-1,3-dihydro-2H-benzimidazol-2-one]
SPTISF IC50 (nM)
  IC50: 1.68 nM

## CC1(C)CCN(C(=O)CN2CCC(n3c(=O)[nH]c4cc(S(C)(=O)=O)ccc43)CC2)CC1 [Example 39, 1-{1-[2-(4,4-dimethylpiperidin-1-yl)-2-oxoethyl]piperidin-4-yl}-5-(methylsulfonyl)-1,3-dihydro-2H-benzimidazol-2-one]
[1]
  IC50: 47.9 nM

## CC1(C)CCN(C(=O)CN2CCC(n3c(=O)[nH]c4cc(S(C)(=O)=O)ccc43)CC2)CC1 [Example 40, 1-{1-[2-(4,4-dimethylpiperidin-1-yl)-2-oxoethyl]piperidin-4-yl}-5-(methylsulfonyl)-1,3-dihydro-2H-benzimidazol-2-one hydrochloride]
[1]
  IC50: 12.9 nM

## CS(=O)(=O)c1ccc2c(c1)[nH]c(=O)n2C1CCN(CC(=O)C2CCCCC2)CC1 [Example 41, 1-[1-(2-cyclohexyl-2-oxoethyl)piperidin-4-yl]-5-(methylsulfonyl)-1,3-dihydro-2H-benzimidazol-2-one]
[1]
  IC50: 365 nM

## CC1CCC(C(=O)CN2CCC(n3c(=O)[nH]c4cc(S(C)(=O)=O)ccc43)CC2)CC1 (stereo not shown) [Example 42, 1-{1-[2-(4-methylcyclohexyl)-2-oxoethyl]piperidin-4-yl}-5-(methylsulfonyl)-1,3-dihydro-2H-benzimidazol-2-one]
[1]
  IC50: 59 nM

## COC1CCC(C(=O)CN2CCC(n3c(=O)[nH]c4cc(S(C)(=O)=O)ccc43)CC2)CC1 (stereo not shown) [Example 43, 1-{1-[2-(4-methoxycyclohexyl)-2-oxoethyl]piperidin-4-yl}-5-(methylsulfonyl)-1,3-dihydro-2H-benzimidazol-2-one]
[1]
  IC50: 301 nM

## CS(=O)(=O)c1ccc2c(c1)[nH]c(=O)n2C1CCN(CC(=O)C2CCC(C(F)(F)F)CC2)CC1 (stereo not shown) [Example 44, 1-{1-[2-(4-trifluoromethylcyclohexyl)-2-oxoethyl]piperidin-4-yl}-5-(methylsulfonyl)-1,3-dihydro-2H-benzimidazol-2-one]
[1]
  IC50: 51.7 nM

## CC(C)(C)C1CCC(C(=O)CN2CCC(n3c(=O)[nH]c4cc(S(C)(=O)=O)ccc43)CC2)CC1 (stereo not shown) [Example 45, 1-{1-[2-(4-tert-butylcyclohexyl)-2-oxoethyl]piperidin-4-yl}-5-(methylsulfonyl)-1,3-dihydro-2H-benzimidazol-2-one]
[1]
  IC50: 333 nM

## COC1(C)CCC(C(=O)CN2CCC(n3c(=O)[nH]c4cc(S(C)(=O)=O)ccc43)CC2)CC1 (stereo not shown) [Example 47, 1-{1-[2-(4-methoxy-4-methylcyclohexyl)-2-oxoethyl]piperidin-4-yl}-5-(methylsulfonyl)-1,3-dihydro-2H-benzimidazol-2-one]
[1]
  IC50: 508 nM

## CC1(C(=O)CN2CCC(n3c(=O)[nH]c4cc(S(C)(=O)=O)ccc43)CC2)CCCCC1 [Example 48, 1-{1-[2-(1-methylcyclohexyl)-2-oxoethyl]piperidin-4-yl}-5-(methylsulfonyl)-1,3-dihydro-2H-benzimidazol-2-one]
[1]
  IC50: 4400 nM

## CNC(=O)c1cc2[nH]c(=O)n(C3CC4CCC(C3)N4CC(=O)N3CCC(C)(OC)CC3)c2cc1F (stereo not shown) [Example 49, 6-fluoro-1-{8-[2-(4-methoxy-4-methylpiperidin-1-yl)-2-oxoethyl]-8-azabicyclo[3.2.1]oct-3-yl}-N-methyl-2-oxo-2,3-dihydro-1H-benzimidazole-5-carboxamide trifluloroacetate]
[1]
  IC50: 165 nM

## COC1(C)CCN(C(=O)CN2CCC(n3c(=O)[nH]c4cc(C(C)=O)ccc43)CC2)CC1 [Example 55, 5-acetyl-1-{1-[2-(4-methoxy-4-methylpiperidin-1-yl)-2-oxoethyl]piperidin-4-yl}-1,3-dihydro-2H-benzimidazol-2-one; HCl salt]
[1]
  IC50: 71 nM
